Test results as given in patent US20190352511A1, “LANTHANIDE COMPLEXES COMPRISING DENDRIMERS” (UNIVERSITE D'ORLEANS, priority 2017, published 2019).

Columns and labels:
Absorption spectra = type: physicochemical; settings: DMSO, low energy main band at 672 nm
Source text: For the sake of comparison, the absorption spectrum of compound 9 is multiplied by a factor corresponding to the number of chromophores attached to the branches of the dendrimer, for example, by 16 for (Ln8-) G3P-(Bodipy1)16 and by 32 for (Ln8-) G3P-(Bodipy1)32.
The absorption spectrum of the Bodipy chromophore (compound 9) measured in a DMSO solution has a broad band of up to 770 nm with a low energy main band at 672 nm (ϵ=2.1.10^5 M^−1 cm^−1), FIG. 3). […] On the other hand, the molar coefficient of absorption increases with the number of Bodipy chromophore units attached.
Absorption spectra of the Yb8-G3P-(TPP)32 complex were recorded in DMSO and in the DMSO/(Opti-MEM/FCS, 6: 94%) mixture (FIG. 13).

HeLa cells [1] = assay: Confocal fluorescence microscopy imaging; type: cell-based, human; settings: 30 min incubation, 1.5 μM, λex 633 nm (laser 6%), λem 650-800 nm
Procedure: HeLa cells after 30 min of incubation with a solution of 1.5 μM compound 9 and dendrimer (Ln8-)G3P-(Bodipy1)n (n=16, 32; Ln=Yb^3+, Nd^3+). The emission of aza-BODIPY (λex: 633 nm, λem: 650-800 nm) was observed under excitation at 633 nm (laser power at 6%). (Top) Yb8-G3P-(Bodipy1)16 (A), Nd8-G3P-(Bodipy1)16 (B), G3P-(Bodipy1)16 (C), Compound 9 (D) and (bottom) Yb8-G3P-(Bodipy1)32 (A), Nd8-G3P-(Bodipy1)32 (B), G3P-(Bodipy1)32 (C), untreated cells (D). The images are taken in the plane of the cellular nucleus. The white arrows indicate the specific localization of the dendrimers in the lysosomes and the yellow arrows indicate the filopods. 63× magnification lens.
Confocal microscopy experiments were performed to confirm the intracellular localization of the dendrimers (FIG. 7). For this purpose, HeLa cells were incubated for 30 min with a concentration solution of 1.5 μM, which corresponds to ˜89-100% of cell viability. The fluorescence of the dendrimers was observed using a 633 nm laser as the excitation source and the emission of aza-BODIPY was collected between 650 and 800 nm with an optical cut of 1 μm in the z axis. The same laser power was used for the different experiments to compare the signal intensity variations between different dendrimers.

[2] = Absolute quantum yields (Q) in DMSO solution; type: physicochemical
Source text: The absolute quantum yields of the chromophore (compound 9) and dendrimers (Ln8-)G3P-(Bodipy1)n (n=16, 32; Ln=Yb^3+, Nd^3+) are summarized in Table 1. Significant decreases (6 and 3.4 times) in quantum emission efficiencies from the aza-BODIPY-COOH chromophoric moieties for the functionalized dendrimers, G3P-(aza-BODIPY)32 and G3P-(aza-BODIPY)16, respectively. […] On the other hand, the Q values are increased by 1.7 and 1.4 times for G3P-(Bodipy1)32 during the encapsulation of the lanthanide cations Yb^3+ and Nd^3+, respectively.

[3] = Photobleaching / photostability under continuous illumination; type: physicochemical; settings: 10 μM in DMSO, uninterrupted illumination at 670 nm for 3 h, emission at 735 nm
Procedure: The experiments were carried out for a solution at 10 μM in DMSO and under uninterrupted illumination at 670 nm, the emission being collected at 735 nm.
To test the photostability of the system, the chromophore (compound 9) and the dendrimers (Ln8-)G3P-(Bodipy1)n (n=16, 32; Ln =Yb^3+, Nd^3+) were continuously illuminated with 670 […]. nm and the emission signal was monitored at 735 nm. […] However, the photostability of G3P-(Bodipy1)16 could be improved by the incorporation of Ln^3+. In addition, it turned out to be dependent on the nature of the lanthanides. […] As for the initial chromophore, compound 9 (FIG. 5) loses 75% of its luminescence intensity after 3 hours of illumination. Therefore, in general, the attachment of the chromophore moieties to the dendrimer structure and the presence of Ln^3+ can be advantageously used to provide and enhance the photostability of the probe.
The continuous illumination of G3P-(Alkyne)x-(Cyanine)y (x=22-24, y=8-10) with a light centered at 665 nm makes it possible to estimate the photostability of the dendrimers which appears to be rather weak. (FIG. 11).

HeLa cells [4] = assay: Cellular internalization by flow cytometry (NaN3 or 4° C. inhibition); type: cell-based, human; settings: 1.5 μM; for Cellular internalization, Active (percentage inhibited with NaN3): NaN3 treatment
Procedure: HeLa cells were incubated for 30 min with a 1.5 μM concentration solution of chromophores and dendrimers (Ln8-)G3P-(Bodipy1)n (n=16, 32; Ln=Yb^3+, Nd^3+) as control. In order to block the active and passive transport pathways, HeLa cells were treated with NaN3 (active internalization inhibitor) or pre-incubated at 4° C. for 30 min (inhibition of active and passive pathways) before incubation with the dendrimers.
Cytometry has been used to quantify cell internalization of dendrimers and to better understand signal intensity differences observed in confocal microscopy. The mechanisms of passive (non-dependent energy) and active (energy dependent) internalization of cells have been studied. Active transport was inhibited with sodium azide (NaN3), while incubation at 4° C. inhibited active and passive transport pathways by increasing the plasma membrane stiffness of HeLa cells (S. Vranic, N. Boggetto, V. Contremoulins, S. Mornet, N. Reinhardt, F. Marano, A. Baeza-Squiban, S. Boland, Deciphering the mechanisms of cellular uptake of nanoparticles by accurate evaluation of internalization for cytometry, Particle and Fiber Toxicology, 10 (2013) 1-16).
However, for both types of dendrimers, internalization is consistently higher for those containing Yb^3+ than for those containing Nd^3+. […] For the chromophore compound 9, a relatively strong emission signal was observed and corresponding to 65% internalization of Yb8G3P-(Bodipy1)16. […] Dendrimers enter cells through active and passive transport pathways (FIG. 8). The relative percentages of active or passive internalization vary according to the number of Bodipy chromophore and the presence of Ln^3+. […] However, further studies are needed to clarify the exact mechanisms of active transportation. […]

HeLa cells [5] = assay: Alamar Blue cytotoxicity test; type: cell-based, human; settings: up to 2 μM, 24 h incubation
Procedure: In order to determine the potential toxicity of the described dendrimers, an Alamar Blue test was performed on the HeLa […] carcinoma human cell line (FIG. 6). Different concentrations of chromophores (compound 9) and dendrimers (Ln8-)G3P-(Bodipy1)n (n=16, 32; Ln=Yb^3+, Nd^3+) were tested.

molar absorption coefficient ϵ (Absorption spectra): 2.1.10^5 M^−1 cm^−1
quantum yield ratio versus Yb8-G3P-(aza-BODIPY)16 [2]: 3.4 times
Q (%) quantum yield ([2]; 10 μM in DMSO, room temperature, excitation 650 nm, emission collected 660 to 850 nm): 8.04(8) %
decrease of initial luminescence intensity [3]: 75%
SMILES: COc1ccc(-c2cc(-c3ccccc3)n(B(F)F)c2/N=C2\N=C(c3ccccc3)C=C2c2ccc(OCC(=O)O)cc2)cc1 [Compound 9, (Z)-2-(4-(2((1-(difluoroboryl)-3-(4-methoxyphenyl)-5-phenyl-1H-pyrrol-2-yl)imino)-5-phenyl-2H-pyrrol-3-yl)phenoxy)acetic acid]
intracellular emission signal intensity (confocal) (HeLa cells [1]): signal of lower intensity
Cellular internalization, Passive (HeLa cells [4]; difference between internalization inhibited at 4° C. and inhibited with sodium azide): 81 ± 1%
internalization relative to Yb8G3P-(Bodipy1)16 (HeLa cells [4]; 30 min incubation): 65%
Cellular internalization, Active (percentage inhibited with NaN3) (HeLa cells [4]; 30 min incubation): 19%
Cellular internalization, Active (percentage inhibited with NaN3) (HeLa cells [4]; 30 min incubation, listed as Composé{acute over ( )}9, 1.5 µM): 18 ± 4%
cell viability (HeLa cells [5]): ~100%
